Data on 27 compounds can be found in patent US8288371B2, “Ortho pyrrolidine, benzyl-substituted heterocycle CCR1 antagonists for autoimmune diseases and inflammation” (Pharmacopeia, LLC, priority 2007, dated 2012).

In the assay the target is T1, human CCR1 (Homo sapiens, UniProt P32246).
T1 sequence (P32246 1-355): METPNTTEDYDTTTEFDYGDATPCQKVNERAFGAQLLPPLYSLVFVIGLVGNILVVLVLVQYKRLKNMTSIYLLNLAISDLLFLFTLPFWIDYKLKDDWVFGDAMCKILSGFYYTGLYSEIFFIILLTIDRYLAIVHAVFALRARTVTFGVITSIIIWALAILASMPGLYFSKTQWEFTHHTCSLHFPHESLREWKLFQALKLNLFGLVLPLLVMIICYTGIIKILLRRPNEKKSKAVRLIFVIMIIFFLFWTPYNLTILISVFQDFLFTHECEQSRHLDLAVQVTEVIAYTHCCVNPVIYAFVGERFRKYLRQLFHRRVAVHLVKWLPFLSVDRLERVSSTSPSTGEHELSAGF
The experiment in a line: CCR1 binding protocol (SPA, [125I]-MIP-1α displacement). The note with it: cell membrane expressing human CCR1, 0.1 nM [125I]-MIP-1α, 4 hours at ambient temperature; read-out: Relative potency (IC50). The protocol: The following protocol was used to test compounds for CCR1 binding. A mixture, including scintillation proximity assay (SPA) beads and cell membrane expressing human CCR1, was prepared in assay buffer (130 mM NaCl+5 mM KCl+1 mM MnCl+50 mM Tris HCl at pH 7.4+0.1% bovine serum albumin (BSA)) at the ratio of 50 μg/ml membrane to 10 mg/ml SPA beads. 10 μl of the mixture was transferred to each well of a 384-well assay plate yielding a final concentration for the membrane and SPA beads of 0.5 μg/well and 100 μg/well, respectively
To generate different concentrations of the test compound, compound stocks were prepared using 10 step ½ log dilutions with a high concentration of 10 mM in DMSO and the lowest concentration being DMSO only without compound. An intermediate 40× dilution was then prepared in the assay buffer. The compound was then transferred at 10 μl/well to the assay plate. 0.5 nM [^125 I]-labeled macrophage inflammatory protein-1α (MIP-1α, an endogenous CCR1 ligand) in the assay buffer was transferred to the assay plate at 5 μl/well, for a final ligand concentration of 0.1 nM. The assay plate was then centrifuged at 2500 rpm for 2 minutes and incubated for 4 hours at ambient temperature, at which time the raw data was recorded using microbeta. The IC50 was then calculated using Graphpad Prism.
What is called IC50 is the concentration that inhibits the measured activity by half. On to `Cc1nnc([C@H]2CCCN2C(=O)Nc2ccc(C(F)(F)F)cc2Cl)n1Cc1ccc(Cl)cc1` [Compound 154], for which the IC50 was in the range of 50 to 500 nM.
`O=C(Nc1ccc(C(F)(F)F)cc1)N1CCC[C@@H]1c1nnnn1Cc1ccc(Cl)cc1` [Compound 53]: the IC50 is less than 50 nM.
The value for `Cc1nnc([C@H]2CCCN2C(=O)Nc2ccc(Cl)cc2F)n1Cc1ccc(Cl)c(Cl)c1` [Compound 384] was 50 to 500 nM; that for `Cc1nnc([C@H]2CCCN2C(=O)Nc2ccc(Cl)cc2F)n1Cc1ccc(F)cc1` [Compound 367] was 50 to 500 nM.
The value for `Cc1nnc([C@H]2CCCN2C(=O)NCc2ccccc2-c2cc(C(F)(F)F)nn2C)n1Cc1ccc(Cl)cc1` [Compound 622] was less than 50 nM; that for `Cc1onc(-c2ccncc2)c1NC(=O)N1CCC[C@@H]1c1nnc(C)n1Cc1ccc(Cl)cc1` [Compound 304] was less than 50 nM.
Regarding `Cc1noc(C)c1NC(=O)N1C[C@H](O)C[C@@H]1c1nnc(C)n1Cc1ccc(Cl)cc1` [Compound 447], the IC50 fell in the range of 50 to 500 nM.
To `CC[C@H](NC(=O)N1CCC[C@@H]1c1nnc(C)n1Cc1ccc(Br)cc1)c1cc2ccccc2o1` [Compound 585] belongs less than 50 nM; to `Cc1nnc([C@H]2CCCN2C(=O)NC2(c3ccccc3)CC2)n1[C@H](C)c1ccc(Cl)cc1` [Compound 357], 50 to 500 nM.
For the compound `Cc1nnc([C@H]2CCCN2C(=O)N[C@H]2CCOc3cc(C(F)(F)F)ccc32)n1Cc1ccc(Cl)nc1` [Compound 382], the IC50 was 50 to 500 nM.
In the case of `Cc1nnc([C@H]2CCCN2C(=O)Nc2ccc(Cl)cc2F)n1C1(c2ccc(Cl)cc2)CC1` [Compound 325], the IC50 is 50 to 500 nM.
Regarding `Cc1ccc(C(=O)N(C)C)cc1NC(=O)N1CCC[C@@H]1c1nnc(C)n1Cc1ccc(Cl)cc1` [Compound 208], the IC50 was less than 50 nM.
The value for `Cc1nnc([C@H]2C[C@H](O)CN2C(=O)Cc2cccc(C(F)(F)F)c2)n1Cc1ccc(Cl)cc1` [Compound 499] was 50 to 500 nM.
The value for `Cc1nc(C(F)(F)F)ccc1N/C(=N\C#N)N1CCC[C@@H]1c1nnc(C)n1Cc1ccc(Cl)cc1` [Compound 539] was 50 to 500 nM; that for `N#Cc1ccc2c(c1)OCCC2NC(=O)N1CCC[C@@H]1c1ncnn1Cc1ccc(Cl)cc1` (stereo partly drawn) [Compound 72] was 50 to 500 nM.
Take `O=C(Nc1ccc(C(F)(F)F)cc1)N1CCC[C@@H]1c1nccn1Cc1ccc(Cl)cc1` [Compound 38]: the IC50 lay in the range of 50 to 500 nM.
The value for `CNC(=O)c1ccc(Cl)c(NC(=O)N2CCC[C@@H]2c2nnc(C)n2Cc2ccc(Cl)cc2)c1` [Compound 315] was 50 to 500 nM.
To `O=C(N[C@H]1CCc2ccccc2C1)N1CCC[C@@H]1c1nncn1Cc1ccc(Cl)cc1` [Compound 103] belongs less than 50 nM; to `Cc1cc(C)c(S(=O)(=O)N(C)C)cc1NC(=O)N1CCC[C@@H]1c1nnc(C)n1Cc1ccc(Br)cc1` [Compound 559], less than 50 nM.
For `Cc1nnc([C@H]2C[C@H](O)CN2C(=O)Nc2ccc(Cl)cc2F)n1Cc1ccc(Cl)cc1` [Compound 435], the IC50 was less than 50 nM.
With `Cc1nnc([C@H]2CCCN2C(=O)Nc2ccc(S(C)(=O)=O)cc2Cl)n1Cc1ccc(Cl)cc1` [Compound 331], the IC50 is 50 to 500 nM.
Turning to `Cc1cc(C)c(C(=O)N(C)C)cc1NC(=O)N1CCC[C@@H]1c1nnc(C)n1Cc1ccc(Cl)cc1` [Compound 375], the IC50 lay in the range of 50 to 500 nM.
Turning to `Cc1nnc([C@H]2CCCN2C(=O)NCC2CCCN(S(C)(=O)=O)C2)n1Cc1ccc(Cl)cc1` (stereo partly drawn) [Compound 601], the concentration for half-maximal inhibition (IC50) lay in the range of 50 to 500 nM.
To `Cc1nnc([C@H]2CCCN2C(=O)N[C@H]2CCOc3c(F)ccc(Cl)c32)n1Cc1ccc(Cl)cc1` [Compound 165] belongs 50 to 500 nM; to `Cc1nnc([C@H]2CCCN2C(=O)Nc2ccc(F)cc2Cl)n1Cc1ccc(Cl)cc1` [Compound 425], less than 50 nM; to `N#C/N=C(\Nc1ccc(C(F)(F)F)cc1)N1CCC[C@@H]1c1nccn1Cc1ccc(Cl)cc1` [Compound 42], 50 to 500 nM.
The value for `Cc1nc(C(F)(F)F)ccc1NC(=O)N1CC=C[C@@H]1c1nnc(C)n1Cc1ccc(Cl)cc1` [Compound 636] was less than 50 nM.
